Laboratory results as given in patent US20200206233A1 (INTEGRAL BIOSCIENCES PRIVATE LIMITED, priority 2018, published 2020).

Key:
Format in all cases: biochemical
IDH2 mutant (R140Q) = target: T1, IDH2 mutant (R140Q) (Homo sapiens, UniProt P48735, R140Q); assay: Mutant IDH2-R140Q Fluorescence Assay (Resazurin based); settings: 5 nM IDH2 R140Q, 4 hr pre-incubation, 1 mM α-ketoglutarate, 5 μM NADPH, 2 h
T1 construct: purchased BPS Bioscience 71100-2
T1 sequence (P48735 40-452 R140Q): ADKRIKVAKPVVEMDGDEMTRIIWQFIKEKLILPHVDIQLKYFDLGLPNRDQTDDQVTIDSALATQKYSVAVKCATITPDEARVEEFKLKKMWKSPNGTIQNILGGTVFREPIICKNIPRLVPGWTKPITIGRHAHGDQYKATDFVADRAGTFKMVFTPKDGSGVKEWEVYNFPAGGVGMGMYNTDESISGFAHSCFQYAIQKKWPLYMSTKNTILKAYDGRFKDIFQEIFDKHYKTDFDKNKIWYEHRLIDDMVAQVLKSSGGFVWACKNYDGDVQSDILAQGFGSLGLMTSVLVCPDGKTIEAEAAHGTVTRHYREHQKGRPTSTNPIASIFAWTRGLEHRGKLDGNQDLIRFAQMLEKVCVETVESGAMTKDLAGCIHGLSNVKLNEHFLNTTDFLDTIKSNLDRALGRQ
Method: IC50 values of compounds against IDH2 mutant (R140Q) were determined by Resazurin based Fluorescence assay. Assay was performed in Buffer (25 mM Tris HCl, 150 mM NaCl, 10 mM MgCl2, 0.03% BSA, 2 mM 1-mercaptoethanol) where total reaction volume was 12.5 μL in low-volume 384-well plates (Cat #4511, Corning). Serially diluted compounds (3-fold) were pre-incubated with IDH2 R140Q mutant enzyme (5 nM; Cat #71100-2, BPS Bioscience) for 4 hr at RT (25° C.) followed by addition of cocktail of α-ketoglutarate (1 mM; Cat #75892-25G, Sigma), and NADPH (5 μM; Cat # N1630-100MG, Sigma) with buffer in dark at room temperature for 2 h. After 2 h incubation, 6.25 μL detection solution containing Resazurin (30 μM; (Cat #62758-13-8, Sigma) and Diaphorase (40 ug/ml; Cat # D2197-300UN, Sigma) in buffer was added and incubated for 15 min. Readings were taken in a Synergy Neo Plate reader (BioTek, Winooski) at single excitation of 540 nm and emission at 590 nm respectively.
The % activity of test samples was calculated as (Sample−Min)×100/(Max−Min). [Max: DMSO control, complete reaction with enzyme with DMSO and Min: No enzyme with DMSO]. Percent inhibition (100−% activity) was fitted to the “four-parameter logistic model” in XLfit for determination of IC50 values.

IDH1-WT = target: T2, IDH1-WT (Homo sapiens, UniProt O75874); assay: IDH1-WT Fluorescence Assay (Resazurin based); settings: 1 nM IDH1-WT, 200 μM isocitrate, 15 μM NADP+, 30 min at room temperature
T2 construct: purchased BPS Bioscience 71075-2
Method: IC50 values of compounds against IDH1-WT was determined by Resazurin based Fluorescence assay. Assays were performed in Buffer (50 mM Tris HCl, 10 mM MgCl2, 0.03% BSA, 2 mM ß-mercaptoethanol) where total reaction volume was 25 μL in low-volume 96-well plates. Serially diluted compounds (3-fold) in DMSO (0.5% in final reaction) were incubated with cocktail of isocitrate (200 μM; Cat # I1252-1G, Sigma), NADP^+ (15 μM; Cat # N0505-500MG, Sigma) and buffer for 5 min, following addition of IDH1-WT enzyme (1 nM; Cat #71075-2, BPS Bioscience) and incubated in dark at room temperature for 30 min. After that, 12.5 μL detection solution containing Resazurin (60 μM; Cat #62758-13-8, Sigma) and Diaphorase (40 μg/ml; Cat # D2197-300UN, Sigma) in buffer was added and incubated for 15 min. Readings were taken using a Synergy Neo Plate reader (BioTek, Winooski) at single excitation of 540 nm and emission at 590 nm respectively.
The % (percent) activity of test samples was calculated as (Sample−Min)×100/(Max−Min). [Max: DMSO control, complete reaction with enzyme with DMSO and Min: No enzyme with DMSO]. Percent inhibition (100−% activity) was fitted to the “four-parameter logistic model” in XLfit for determination of IC50 values.

IDH1 mutant (R132H) = target: T3, IDH1 mutant (R132H) (Homo sapiens, UniProt O75874, R132H); assay: Mutant IDH1-R132H Fluorescence Assay (Resazurin based); settings: 10 nM IDH1 R132H, 4 mM α-ketoglutarate, NADPH, 1.5 h at room temperature
T3 construct: purchased BPS Bioscience 71099-2
Outline: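 Recombinant IDH1 R132H (10 nM) was run with α-ketoglutarate (4 mM) and NADPH ([…]) for 1.5 h at room temperature in Tris pH buffer with MgCl2, BSA and mercaptoethanol. Remaining NADPH was detected via diaphorase/resazurin fluorescence (ex 540/em 590 nm). IC50 came from a 4-parameter logistic fit.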

T3 sequence (O75874 whole entry R132H): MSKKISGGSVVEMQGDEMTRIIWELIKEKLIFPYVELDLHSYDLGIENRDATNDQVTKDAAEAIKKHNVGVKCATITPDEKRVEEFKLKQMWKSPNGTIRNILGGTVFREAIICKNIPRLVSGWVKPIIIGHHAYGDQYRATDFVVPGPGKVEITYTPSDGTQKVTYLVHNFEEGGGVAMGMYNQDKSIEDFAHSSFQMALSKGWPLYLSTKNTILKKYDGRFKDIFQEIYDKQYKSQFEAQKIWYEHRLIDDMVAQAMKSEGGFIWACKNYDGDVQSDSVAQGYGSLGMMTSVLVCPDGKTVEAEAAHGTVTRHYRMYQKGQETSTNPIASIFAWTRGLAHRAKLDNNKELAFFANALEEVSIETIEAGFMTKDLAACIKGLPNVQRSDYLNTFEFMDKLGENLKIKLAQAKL
T2 sequence (O75874 whole entry): as the sequence (O75874 whole entry R132H) above, with H132R counted along it

| IC50 (IDH2 mutant (R140Q)) [µM] | IC50 (IDH1-WT) [µM] | IC50 (IDH1 mutant (R132H)) [µM] | Structure (SMILES) |
| --- | --- | --- | --- |
| > 50 | > 50 | 1.66 | CC(C)[C@H]1COC(=O)N1c1ncnc(N[C@@H](C)c2ccc(Oc3ccccc3)cn2)n1 [Compound 1.19, (S)-4-isopropyl-3-(4-((S)-1-(5-phenoxypyridin-2-yl)ethylamino)-1,3,5-triazin-2-yl)oxazolidin-2-one] |
| > 50 | > 50 | 1.4 | Cc1cc([C@H](C)Nc2ncnc(N3C(=O)OC[C@@H]3C(C)C)n2)ncc1-c1ccnc(C(F)(F)F)c1 [Compound 1.21, (S)-4-isopropyl-3-(4-((S)-1-(4-methyl-2′-(trifluoromethyl)-3,4′-bipyridin-6-yl)ethylamino)-1,3,5-triazin-2-yl)oxazolidin-2-one] |
| > 50 | > 50 | 0.36 | CC(C)[C@H]1COC(=O)N1c1ncnc(N[C@@H](C)c2cc3cc(Cl)ccc3[nH]c2=O)n1 [Compound 1.23, (S)-3-(4-((S)-1-(6-chloro-2-oxo-1,2-dihydroquinolin-3-yl)ethylamino)-1,3,5-triazin-2-yl)-4-isopropyloxazolidin-2-one] |
| > 50 | > 50 | 3.04 | C[C@H](Nc1ncnc(N2C(=O)OC[C@@H]2c2ccccc2)n1)c1cn(-c2ccc(C(F)(F)F)cc2)cn1 [Compound 1.26, (S)-4-phenyl-3-(4-((S)-1-(1-(4-(trifluoromethyl)phenyl)-1H-imidazol-4-yl)ethylamino)-1,3,5-triazin-2-yl)oxazolidin-2-one] |
| > 50 | > 50 | 0.396 | Cc1nc(N[C@@H](C)c2ccc(Oc3ccccc3)cc2)nc(N2C(=O)OC[C@@H]2C(C)C)n1 [Compound 1.27, (S)-4-isopropyl-3-(4-methyl-6-((S)-1-(4-phenoxyphenyl)ethylamino)-1,3,5-triazin-2-yl)oxazolidin-2-one] |
| > 50 | > 50 | 4.52 | CC(C)[C@H]1COC(=O)N1c1ncnc(NCc2ccc(Oc3ccccc3)cc2)n1 [Compound 1.28, (S)-4-isopropyl-3-(4-(4-phenoxybenzylamino)-1,3,5-triazin-2-yl)oxazolidin-2-one] |
| > 50 | > 50 | 0.492 | CC[C@H]1COC(=O)N1c1ncnc(N[C@@H](C)c2ccc(Oc3ccccc3)cc2)n1 [Compound 1.29, (S)-4-ethyl-3-(4-((S)-1-(4-phenoxyphenyl)ethylamino)-1,3,5-triazin-2-yl)oxazolidin-2-one] |
| > 50 | > 30 | 0.486 | COc1nc(N[C@@H](C)c2ccc(Oc3ccccc3)cc2)nc(N2C(=O)OC[C@@H]2C(C)C)n1 [Compound 1.31, (S)-4-isopropyl-3-(4-methoxy-6-((S)-1-(4-phenoxyphenyl)ethylamino)-1,3,5-triazin-2-yl)oxazolidin-2-one] |
| > 50 | > 30 | > 30 | CC[C@@H](Nc1ncnc(N2C(=O)OC[C@@H]2C(C)C)n1)c1ccc(Oc2ccccc2)cc1 [Compound 1.34, (S)-4-isopropyl-3-(4-((R)-1-(4-phenoxyphenyl)propylamino)-1,3,5-triazin-2-yl)oxazolidin-2-one] |
| > 50 | > 30 | 0.868 | CC[C@H](Nc1ncnc(N2C(=O)OC[C@@H]2C(C)C)n1)c1ccc(Oc2ccccc2)cc1 [Compound 1.35, (S)-4-isopropyl-3-(4-((S)-1-(4-phenoxyphenyl)propylamino)-1,3,5-triazin-2-yl)oxazolidin-2-one] |
| > 50 | > 50 | 19.4 | CC(C)[C@H]1COC(=O)N1c1ncnc(N[C@@H](C)c2ccccc2)n1 [Compound 1.37, (S)-4-isopropyl-3-(4-((S)-1-phenylethylamino)-1,3,5-triazin-2-yl)oxazolidin-2-one] |
| > 50 | > 50 | 0.298 | CC[C@H]1COC(=O)N1c1nc(C)nc(N[C@@H](C)c2cn(-c3ccc(C(F)(F)F)cc3)cn2)n1 [Compound 1.40, (S)-4-ethyl-3-(4-methyl-6-((S)-1-(1-(4-(trifluoromethyl)phenyl)-1H-imidazol-4-yl)ethylamino)-1,3,5-triazin-2-yl)oxazolidin-2-one] |
| > 50 | > 50 | 0.707 | CC[C@H]1COC(=O)N1c1nc(N[C@@H](C)c2cn(-c3ccc(C(F)(F)F)cc3)cn2)nc(OC)n1 [Compound 1.41, (S)-4-ethyl-3-(4-methoxy-6-((S)-1-(1-(4-(trifluoromethyl)phenyl)-1H-imidazol-4-yl)ethylamino)-1,3,5-triazin-2-yl)oxazolidin-2-one] |
| > 50 | > 50 | 0.308 | CC[C@H]1COC(=O)N1c1nc(C)nc(N[C@@H](C)c2ccc(Oc3ccc(F)cc3)cc2)n1 [Compound 1.58, (S)-4-ethyl-3-(4-((S)-1-(4-(4-fluorophenoxy)phenyl)ethylamino)-6-methyl-1,3,5-triazin-2-yl)oxazolidin-2-one] |
| > 50 | > 50 | 0.328 | CC[C@H]1COC(=O)N1c1nc(C)nc(N[C@@H](C)c2cc3cc(Br)ccc3[nH]c2=O)n1 [Compound 1.66, (S)-3-(4-((S)-1-(6-bromo-2-oxo-1,2-dihydroquinolin-3-yl)ethylamino)-6-methyl-1,3,5-triazin-2-yl)-4-ethyloxazolidin-2-one] |
| > 50 | > 50 | 0.832 | CC[C@H]1COC(=O)N1c1nc(C)nc(N[C@@H](C)c2ccc(Oc3ccccc3)cn2)n1 [Compound 1.75, (S)-4-ethyl-3-(4-methyl-6-((S)-1-(5-phenoxypyridin-2-yl)ethylamino)-1,3,5-triazin-2-yl)oxazolidin-2-one] |
| > 50 | > 50 | 0.44 | CC[C@H]1COC(=O)N1c1nc(C)nc(N[C@@H](C)c2ccc(Oc3ccc(F)cc3Br)cc2)n1 [Compound 1.78, (S)-3-(4-((S)-1-(4-(2-bromo-4-fluorophenoxy)phenyl)ethylamino)-6-methyl-1,3,5-triazin-2-yl)-4-ethyloxazolidin-2-one] |
| > 50 | > 50 | 0.586 | CC[C@H]1COC(=O)N1c1nc(C)nc(N[C@@H](C)c2ccc(Oc3cccnc3C(F)(F)F)cc2)n1 [Compound 1.81, (S)-4-ethyl-3-(4-methyl-6-((S)-1-(4-(2-(trifluoromethyl)pyridin-3-yloxy)phenyl)ethylamino)-1,3,5-triazin-2-yl)oxazolidin-2-one] |
| > 50 | > 50 | 0.414 | CC[C@H]1COC(=O)N1c1nc(C)nc(N[C@@H](C)c2ccc(Oc3ccccc3)c(-c3ccccc3)c2)n1 [Compound 1.82, (S)-4-ethyl-3-(4-methyl-6-((S)-1-(6-phenoxybiphenyl-3-yl)ethylamino)-1,3,5-triazin-2-yl)oxazolidin-2-one] |
